Data from patent publication US20210236840A1, “COMBINED SONODYNAMIC AND PHOTODYNAMIC THERAPY TO TREAT DEEP SEATED CANCER AND OTHER HYPERPOLIFERATIVE DISEASE AND ULTRASOUND AND LIGHT TRIGGERED RELEASE OF NEAR INFRARED PHOTOSENSITIZERS AND CHEMOTHERAPY AGENTS FROM POLYACRLAMIDE BASED NANOPARTICLES” (Photolitec, LLC, priority 2020, published 2021).

Legend:
U87 Glioma xenografts = assay: In vivo PDT and PDT-SDT combination response; settings: PDT alone; SCID mice bearing U87 Glioma xenografts
U87 tumors = assay: Long-term tumor cure by Photobac-PDT; assay type: in vivo, SCID mice; settings: laser light at 787 nm; for CR: 60 days
Method: Analysis of anticancer efficacy of Photobac was injected in tumor-bearing mice and treated with the laser light at 787 nm. Tumor cure was monitored for 60 days post-laser treatment. […] Photobac is being developed for the treatment of glioblastoma by Photolitec, LLC (a spin-off of RPCI) has received an ORPHAN DRUG STATUS from FDA.
Long-term tumor cure by Photobac-PDT on treating nude mice (female) bearing U87 tumors (shoulder) at variable drug doses. The tumors were exposed with light (787 nm, 135 J/cm^2, 75 mW/cm^2) at 24 h post injection. Comparative long-term cure of Photobac-PDT treatment in both and female SCID mice bearing U87 tumors (shoulder) under similar treatment parameters (drug dose: 0.75 μmol/kg; light dose: 135 J/cm^2, 75 mW/cm^2.

[1] = test system: Colon 26 tumors and U87 tumors; assay: Photobac-PDT vascular shutdown, CD31 staining of tumor sections; assay type: in vivo, BALB/C mice; nude mice; settings: 787 nm, 135 J/cm2, 75 mW/cm2 at 24 h post-injection; 0.25 μmol/kg (Colon 26) or 0.75 μmol/kg (U87)

SMILES	complete response (U87 Glioma xenografts) [%]	mice tumor free up to 60 days (U87 tumors; female SCID mice)	CR (U87 tumors; female SCID mice) [%]	mice tumor free up to 60 days (U87 tumors; male mice)	CR (U87 tumors; male mice) [%]	vascular effect of PDT [1]
CCCCCCOC(C)c1c(C)c2cc3nc(c4c5[nH]c(cc6nc(cc1[nH]2)C(C)=C6CC)c(C)c5C(=O)C4)[C@@H](CCC(=O)O)[C@@H]3C (stereo partly drawn) [HPPH, 2-(1-Hexyloxyethyl)-2-devinyl pyropheophorbide-a]	37					
CCCCOC(C)C1=C(C)c2cc3nc(c4c5[nH]c(cc6[nH]c(cc1n2)[C@H](C)[C@H]6CC)c(C)c5C(=O)N(CCCC)C4=O)[C@@H](CCC(=O)OC)[C@@H]3C (stereo partly drawn) [Photobac, bacteriopurpurinimide]		4/5	80	4/7	60	causes vascular shutdown
